According to US20260275403A1, “METHOD FOR DETECTION OF NUCLEIC ACID END(S)” (INTODNA SPÓLKA AKCYJNA, priority 2023, published 2026):
“Also recorded” adds a separate entry of the source.

How the values were obtained:
HAP1 PMS2 KO cells = settings: 6TG 1 uM 48 h treatment
Description: (§1) • 1. Proteinase K treatment of the biological material for 30 seconds (at a concentration of about 7 μg/mL (1:350 dilution of proteinase K stock concentration of 2.5 mg/mL), solution in PBS) at about 22° C. (i.e. room temperature) • 2. (optional) incubation with 1 mM PMSF in PBS for 5 minutes at about 22° C. • 3. (optional) rinse with PBS
(§2) • 5. Polymerase I reaction at 37° C. with polymerase I enzyme, […], biotin-16-dUTP, biotin-16-dCTP, and dGTP • 6. (optional) rinse with buffer
(§3) • 1. (optional) 60 min incubation in Navinci Blocking Buffer at 37° C. • 2. 60 min incubation in 1:100 rabbit monoclonal anti-PMS2 (or PMS1 or MLH1) antibody in Navinci Primary Antibody Diluent at about 22° C. • 3. (optional) PBS rinse • 4. 60 min incubation in 1:100 mouse monoclonal anti-biotin antibody in Navinci Primary Antibody Diluent at about 22° C. • 5. (optional) PBS rinse
(§4) • 1. PLA probes binding reaction at 37° C. (Navinci PLA reagents and standard protocol) • 2. Reaction A at 37° C. • 3. Reaction B at 37° C. • 4. Reaction C at 37° C. […]
(§5) When cell confluence reached 90%, cells were washed with sterile PBS (without Ca^2+ and Mg^2+) and incubated for 2 min with 2 mL of 0.25% trypsin solution with EDTA. Trypsin was inactivated with the culture medium containing FBS and the collected cells were counted in the Burker chamber. […]

HAP1 parental cells = settings: 6TG at a higher concentration
Description: as §1, §2, §3, §4, §5

HAP1 cells (WT and KO) = system: HAP1 cells (WT and KO)
Description: as §1, §2, §3
(§6) • 1. PLA probes binding reaction at 37° C. (Navinci PLA reagents and standard protocol) • 2. Reaction A at 37° C. • 3. Reaction B at 37° C. • 4. Reaction C at 37° C.
After 24 h of rest the operation medium was changed to a fresh one with supplementation of 1 μM or 10 μM 6-Tioguanine (6TG) in DMSO and left to rest for the incubation time 48h (final DMSO concentration was 0.1% in medium in each experimental condition). […]

human cells U2OS WT = system: human cells U2OS WT
Description: as §1, §2, §3, §6
In vehicle conditions the operation medium was changed to a fresh one with supplementation of 0.1% sterile DMSO and left to rest for the incubation time.

[1] = system: NCI-H661 (i.e. HR proficient cell line); assay: dSTRIDE-RPA, RPA70-associated double-strand DNA breaks; format: cell-based, human; settings: NCI-H661, 5 μM or 50 μM etoposide, 48h
Description: (§7) • 1. TdT reaction at 37° C. with BrdU and TdT enzyme • 2. (optional) rinse with PBS
(§8) • 1. […] (optional) PBS rinse • 4. […] (optional) PBS rinse
as §6
(§9) NCI-H1693 and NCI-H661 were purchased from ATCC cell culture collection (18.05.2022). The detailed cell culture description is listed on Table 16. […] The master bank collection was prepared form #1 passage.
(§10) (also included passage number).
(§11) The labelling was performed according to protocols described in Examples 2 or 3.

[2] = system: NCI-H1693 (i.e. HR deficient) cell line; assay: as above; format: cell-based, human; settings: 48h
Description: as §7, §8, §6, §9, §10, §11

[3] = system: NCI-H661 (i.e. HR proficient cell line); assay: dSTRIDE-RAD51 (dSTRIDE-HR), RAD51-associated double-strand DNA breaks; format: cell-based, human; settings: 48h; for number of dSTRIDE-HR (RAD51) foci: NCI-H661, 5 μM or 50 μM etoposide
Description: (§12) • 1. […] (i.e. room temperature) • 2. […] (optional) rinse with PBS
as §7
(§13) • 6. […] 7. […] (optional) PBS rinse • 9. […] (optional) PBS rinse
as §6, §9, §10, §11

[4] = system: NCI-H1693 (i.e. HR deficient cell line); assay: as above; format: cell-based, human; settings: NCI-H1693, 5 μM or 50 μM etoposide, 48h
Description: as §12, §7, §13, §6, §9, §10, §11

[5] = system: NCI-H661 (i.e. HR proficient cell line); assay: dSTRIDE, double-strand DNA breaks; format: cell-based, human; settings: 48h; for number of double-strand DNA breaks detected by dSTRIDE: NCI-H661, 5 μM or 50 μM etoposide
Description: as §9, §10, §11

[6] = system: NCI-H1693 (i.e. HR deficient) cell line; assay: dSTRIDE, double-strand DNA breaks; format: cell-based, human; settings: 48h; for number of double-strand DNA breaks detected by dSTRIDE: NCI-H1693, 5 μM or 50 μM etoposide
Description: as §9, §10, §11

[7] = NCI-H1693 versus NCI-H661, 50 uM etoposide

## Nc1nc2[nH]cnc2c(=S)[nH]1 [6TG, 6-Tioguanine]
HAP1 PMS2 KO cells
  number of sSTRIDE-MMR fluorescence foci: does not result in a significant increase
HAP1 parental cells
  level of sSTRIDE-MMR signals: elevated level of sSTRIDE-MMR signals
HAP1 cells (WT and KO); HAP1 PMS2 WT and KO, 6TG treatment
  sSTRIDE-MMR (MLH1) readouts: increase in sSTRIDE-MMR (MLH1) readouts
HAP1 cells (WT and KO); after treatment with 6TG
  PMS1 at SSBs (sSTRIDE-PMS1): engaged in MMR processes
Human cells U2OS WT; Sample 4, 6TG treated U2OS WT cells, 48 h (6TG 100nM per Table 3), antigen retrieval 1 (proteinase K 2 min)
  maximum number of sSTRIDE MMR foci per nucleus: 3 foci per nucleus
Human cells U2OS WT; U2OS WT, 6TG 48 h, antigen retrieval 1 (proteinase K 2 min)
  response in number of foci detected after 6TG treatment (quantitative image analysis): no response
Human cells U2OS WT; U2OS WT, 48 h 6TG in different concentration, Abcam antibody, antigen retrieval method v2
  number of foci in the nucleus after treatment: did not significantly increase number of foci
Human cells U2OS WT; U2OS WT, Abcam antibody, 6TG 250 nM-10 μM, 24 h or 48 h, antigen retrieval method 2
  sSTRIDE MMR readouts level of 6TG treated cells versus non-treated samples: lower than in the non-treated samples

## COc1cc([C@@H]2c3cc4c(cc3[C@@H](O[C@@H]3O[C@@H]5CO[C@@H](C)O[C@H]5[C@H](O)[C@H]3O)[C@H]3COC(=O)[C@H]23)OCO4)cc(OC)c1O [etoposide, Etoposide]
[1]
  number of RPA-associated double-strand DNA breaks detected by dSTRIDE-RPA: dose-dependent increase in the number of dSTRIDE-RPA foci; also recorded: dose-dependent response
[2]; NCI-H1693, 5 μM or 50 μM etoposide
  number of RPA-associated double-strand DNA breaks detected by dSTRIDE-RPA: dose-dependent increase in the number of dSTRIDE-RPA foci
[2]; [7]
  dSTRIDE-RPA foci, cell line comparison: more dSTRIDE-RPA foci detected in HR deficient cell line
[3]
  number of dSTRIDE-HR (RAD51) foci: dose-dependent increase; also recorded: dose-dependent response
[3]; listed as Etoposide
  number of dSTRIDE-HR (RAD51) foci: increase in the number of visible fluorescence foci
[3]; NCI-H661, 50 uM etoposide
  number of RAD51-associated double-strand DNA breaks detected by dSTRIDE-RAD51: significant increase
[4]
  number of RAD51-associated double-strand DNA breaks detected by dSTRIDE-RAD51: no response
[4]; listed as Etoposide
  number of RAD51-associated double-strand DNA breaks detected by dSTRIDE-RAD51: did not results in a detectable increase; also recorded: no response
[5]
  number of double-strand DNA breaks detected by dSTRIDE: dose-dependent increase in the number of DSBs; also recorded: dose-dependent response
[5]; listed as Etoposide
  number of double-strand DNA breaks detected by dSTRIDE: efficiently induces DSBs
[5]; NCI-H661, 5 um etoposide
  increase in DSBs (dSTRIDE), cell line comparison: comparable in both cell lines
[6]
  number of double-strand DNA breaks detected by dSTRIDE: increase in the number of double-strand DNA breaks; also recorded: dose-dependent increase in the number of DSBs; also recorded: dose-dependent formation of double-strand DNA breaks
[6]; listed as Etoposide
  number of double-strand DNA breaks detected by dSTRIDE: efficiently induces DSBs
[6]; NCI-H1693, 5 um etoposide
  increase in DSBs (dSTRIDE), cell line comparison: comparable in both cell lines
[6]; [7]
  number of DSBs (dSTRIDE), cell line comparison: more profound increase; also recorded: more DSBs are induced in HR deficient than in HR proficient cell lines
